Patent US20240358668A1, “METHODS AND CO[…] AM[…] CARD[…] USING (R)-2-AMINO-3-PH[…]” (AXSOME THERAPEUTICS, INC., priority 2021, published 2024)

Test system: participants with narcolepsy or OSA
Experiment: 1-year OLE study: blood pressure, parent study baseline to OLE week 40
Format: in vivo, human
Method: A 1-year open-label extension (OLE) study was performed with 374 participants to examined whether clinically significant weight loss (≥5%) in this population had favorable effects on biomarkers of cardiovascular risk compared to no such weight loss. The study measured changes in weight and BP (parent study baseline to OLE week 40) and clinical laboratory assessments (OLE baseline to week 40) in participants with narcolepsy (n=124) or OSA (n=250) who received solriamfetol at doses of 75, 150, or 300 mg/d.
We evaluated changes in weight and BP (parent study baseline to OLE week 40) and clinical laboratory assessments (OLE baseline to week 40) in participants with narcolepsy (n=124) or OSA (n=250) from the OLE study.

[1] = Weight loss <5% at Week 40, 75 mg/d
[2] = Weight loss <5% at Week 40, 150 mg/d
[3] = Weight loss <5% at Week 40, 300 mg/d
[4] = Weight loss <5% at Week 40, all doses
[5] = Weight loss <5% at Week 40, all doses, listed as Solri
[6] = Weight loss <5% at Week 40, all doses, listed as solriamfetol
[7] = Weight loss ≥5% at Week 40, 75 mg/d
[8] = Weight loss ≥5% at Week 40, 150 mg/d
[9] = Weight loss ≥5% at Week 40, 300 mg/d
[10] = Weight loss ≥5% at Week 40, all doses
[11] = Weight loss ≥5% at Week 40, all doses, listed as Solri
[12] = Weight loss ≥5% at Week 40, all doses, listed as solriamfetol

NC(=O)OC[C@H](N)Cc1ccccc1 [Solriamfetol, (R)-2-amino-3-phenylpropyl carbamate]
DBP Change - Wk 40, Mean (SD) [1]: 0.2 (9.5) mmHg | DBP Change - Wk 40, Median [1]: 0.0 mmHg | DBP maximum changes from baseline to week 40: Decrease ≥10% [1]: 3 (14.3) n (%) | DBP maximum changes from baseline to week 40: Decrease ≥20% [1]: 0 n (%) | DBP maximum changes from baseline to week 40: Decrease ≥30% [1]: 0 n (%) | DBP maximum changes from baseline to week 40: Increase ≥10% [1]: 4 (19.0) n (%) | DBP maximum changes from baseline to week 40: Increase ≥20% [1]: 0 n (%) | DBP maximum changes from baseline to week 40: Increase ≥30% [1]: 0 n (%) | SBP Change - Wk 40, Mean (SD) [1]: −3.0 (12.3) mmHg | SBP Change - Wk 40, Median [1]: 0.50 mmHg | SBP maximum changes from baseline to week 40: Decrease ≥10% [1]: 6 (28.6) n (%) | SBP maximum changes from baseline to week 40: Decrease ≥20% [1]: 0 n (%) | SBP maximum changes from baseline to week 40: Decrease ≥30% [1]: 0 n (%) | SBP maximum changes from baseline to week 40: Increase ≥10% [1]: 5 (23.8) n (%) | SBP maximum changes from baseline to week 40: Increase ≥20% [1]: 0 n (%) | SBP maximum changes from baseline to week 40: Increase ≥30% [1]: 0 n (%) | DBP Change - Wk 40, Mean (SD) [2]: 2.3 (7.9) mmHg | DBP Change - Wk 40, Median [2]: 2.3 mmHg | DBP maximum changes from baseline to week 40: Decrease ≥10% [2]: 4 (3.8) n (%) | DBP maximum changes from baseline to week 40: Decrease ≥20% [2]: 1 (1.0) n (%) | DBP maximum changes from baseline to week 40: Decrease ≥30% [2]: 0 n (%) | DBP maximum changes from baseline to week 40: Increase ≥10% [2]: 16 (15.2) n (%) | DBP maximum changes from baseline to week 40: Increase ≥20% [2]: 3 (2.9) n (%) | DBP maximum changes from baseline to week 40: Increase ≥30% [2]: 0 n (%) | SBP Change - Wk 40, Mean (SD) [2]: 2.30 (12.1) mmHg | SBP Change - Wk 40, Median [2]: 2.00 mmHg | SBP maximum changes from baseline to week 40: Decrease ≥10% [2]: 15 (14.3) n (%) | SBP maximum changes from baseline to week 40: Decrease ≥20% [2]: 4 (3.8) n (%) | SBP maximum changes from baseline to week 40: Decrease ≥30% [2]: 0 n (%) | SBP maximum changes from baseline to week 40: Increase ≥10% [2]: 26 (24.8) n (%) | SBP maximum changes from baseline to week 40: Increase ≥20% [2]: 7 (6.7) n (%) | SBP maximum changes from baseline to week 40: Increase ≥30% [2]: 2 (1.9) n (%) | DBP Change - Wk 40, Mean (SD) [3]: 0.6 (9.1) mmHg | DBP Change - Wk 40, Median [3]: 1.5 mmHg | DBP maximum changes from baseline to week 40: Decrease ≥10% [3]: 20 (13.2) n (%) | DBP maximum changes from baseline to week 40: Decrease ≥20% [3]: 5 (3.3) n (%) | DBP maximum changes from baseline to week 40: Decrease ≥30% [3]: 0 n (%) | DBP maximum changes from baseline to week 40: Increase ≥10% [3]: 21 (13.8) n (%) | DBP maximum changes from baseline to week 40: Increase ≥20% [3]: 2 (1.3) n (%) | DBP maximum changes from baseline to week 40: Increase ≥30% [3]: 0 n (%) | SBP Change - Wk 40, Mean (SD) [3]: −0.37 (12.7) mmHg | SBP Change - Wk 40, Median [3]: 0.17 mmHg | SBP maximum changes from baseline to week 40: Decrease ≥10% [3]: 36 (23.7) n (%) | SBP maximum changes from baseline to week 40: Decrease ≥20% [3]: 10 (6.6) n (%) | SBP maximum changes from baseline to week 40: Decrease ≥30% [3]: 2 (1.3) n (%) | SBP maximum changes from baseline to week 40: Increase ≥10% [3]: 33 (21.7) n (%) | SBP maximum changes from baseline to week 40: Increase ≥20% [3]: 8 (5.3) n (%) | SBP maximum changes from baseline to week 40: Increase ≥30% [3]: 0 n (%) | DBP Change - Wk 40, Median [4]: 1.4 mmHg | DBP maximum changes from baseline to week 40: Decrease ≥10% [4]: 27 (9.7) n (%) | DBP maximum changes from baseline to week 40: Decrease ≥20% [4]: 6 (2.2) n (%) | DBP maximum changes from baseline to week 40: Decrease ≥30% [4]: 0 n (%) | DBP maximum changes from baseline to week 40: Increase ≥10% [4]: 41 (14.7) n (%) | DBP maximum changes from baseline to week 40: Increase ≥20% [4]: 5 (1.8) n (%) | DBP maximum changes from baseline to week 40: Increase ≥30% [4]: 0 n (%) | SBP Change - Wk 40, Median [4]: 0.50 mmHg | SBP maximum changes from baseline to week 40: Decrease ≥10% [4]: 57 (20.5) n (%) | SBP maximum changes from baseline to week 40: Decrease ≥20% [4]: 14 (5.0) n (%) | SBP maximum changes from baseline to week 40: Decrease ≥30% [4]: 2 (0.7) n (%) | SBP maximum changes from baseline to week 40: Increase ≥10% [4]: 64 (23.0) n (%) | SBP maximum changes from baseline to week 40: Increase ≥20% [4]: 15 (5.4) n (%) | SBP maximum changes from baseline to week 40: Increase ≥30% [4]: 2 (0.7) n (%) | DBP Change - Wk 40, Mean (SD) [5]: 1.2 (8.7) mmHg | SBP Change - Wk 40, Mean (SD) [5]: 0.65 (12.5) mmHg | DBP Change - Wk 40, Mean (SD) [6]: 1.2±8.7 mmHg | SBP Change - Wk 40, Mean (SD) [6]: 0.65±12.5 mmHg | DBP Change - Wk 40, Mean (SD) [7]: −3.8 mmHg | DBP Change - Wk 40, Median [7]: −3.8 mmHg | DBP maximum changes from baseline to week 40: Decrease ≥10% [7]: 0 n (%) | DBP maximum changes from baseline to week 40: Decrease ≥20% [7]: 0 n (%) | DBP maximum changes from baseline to week 40: Decrease ≥30% [7]: 0 n (%) | DBP maximum changes from baseline to week 40: Increase ≥10% [7]: 0 n (%) | DBP maximum changes from baseline to week 40: Increase ≥20% [7]: 0 n (%) | DBP maximum changes from baseline to week 40: Increase ≥30% [7]: 0 n (%) | SBP Change - Wk 40, Mean (SD) [7]: −3.3 mmHg | SBP Change - Wk 40, Median [7]: −3.3 mmHg | SBP maximum changes from baseline to week 40: Decrease ≥10% [7]: 0 n (%) | SBP maximum changes from baseline to week 40: Decrease ≥20% [7]: 0 n (%) | SBP maximum changes from baseline to week 40: Decrease ≥30% [7]: 0 n (%) | SBP maximum changes from baseline to week 40: Increase ≥10% [7]: 0 n (%) | SBP maximum changes from baseline to week 40: Increase ≥20% [7]: 0 n (%) | SBP maximum changes from baseline to week 40: Increase ≥30% [7]: 0 n (%) | DBP Change - Wk 40, Mean (SD) [8]: −1.9 (9.9) mmHg | DBP Change - Wk 40, Median [8]: 0.5 mmHg | DBP maximum changes from baseline to week 40: Decrease ≥10% [8]: 5 (22.7) n (%) | DBP maximum changes from baseline to week 40: Decrease ≥20% [8]: 1 (4.5) n (%) | DBP maximum changes from baseline to week 40: Decrease ≥30% [8]: 0 n (%) | DBP maximum changes from baseline to week 40: Increase ≥10% [8]: 3 (13.6) n (%) | DBP maximum changes from baseline to week 40: Increase ≥20% [8]: 0 n (%) | DBP maximum changes from baseline to week 40: Increase ≥30% [8]: 0 n (%) | SBP Change - Wk 40, Mean (SD) [8]: −4.5 (13.8) mmHg | SBP Change - Wk 40, Median [8]: −2.8 mmHg | SBP maximum changes from baseline to week 40: Decrease ≥10% [8]: 7 (31.8) n (%) | SBP maximum changes from baseline to week 40: Decrease ≥20% [8]: 1 (4.5) n (%) | SBP maximum changes from baseline to week 40: Decrease ≥30% [8]: 1 (4.5) n (%) | SBP maximum changes from baseline to week 40: Increase ≥10% [8]: 3 (13.6) n (%) | SBP maximum changes from baseline to week 40: Increase ≥20% [8]: 1 (4.5) n (%) | SBP maximum changes from baseline to week 40: Increase ≥30% [8]: 0 n (%) | DBP Change - Wk 40, Mean (SD) [9]: −0.8 (8.9) mmHg | DBP Change - Wk 40, Median [9]: −0.3 mmHg | DBP maximum changes from baseline to week 40: Decrease ≥10% [9]: 11 (15.1) n (%) | DBP maximum changes from baseline to week 40: Decrease ≥20% [9]: 3 (4.1) n (%) | DBP maximum changes from baseline to week 40: Decrease ≥30% [9]: 0 n (%) | DBP maximum changes from baseline to week 40: Increase ≥10% [9]: 8 (11.0) n (%) | DBP maximum changes from baseline to week 40: Increase ≥20% [9]: 0 n (%) | DBP maximum changes from baseline to week 40: Increase ≥30% [9]: 0 n (%) | SBP Change - Wk 40, Mean (SD) [9]: −2.0 (10.8) mmHg | SBP Change - Wk 40, Median [9]: −1.8 mmHg | SBP maximum changes from baseline to week 40: Decrease ≥10% [9]: 20 (27.4) n (%) | SBP maximum changes from baseline to week 40: Decrease ≥20% [9]: 2 (2.7) n (%) | SBP maximum changes from baseline to week 40: Decrease ≥30% [9]: 0 n (%) | SBP maximum changes from baseline to week 40: Increase ≥10% [9]: 13 (17.8) n (%) | SBP maximum changes from baseline to week 40: Increase ≥20% [9]: 1 (1.4) n (%) | SBP maximum changes from baseline to week 40: Increase ≥30% [9]: 0 n (%) | DBP Change - Wk 40, Median [10]: −0.3 mmHg | DBP maximum changes from baseline to week 40: Decrease ≥10% [10]: 16 (16.7) n (%) | DBP maximum changes from baseline to week 40: Decrease ≥20% [10]: 4 (4.2) n (%) | DBP maximum changes from baseline to week 40: Decrease ≥30% [10]: 0 n (%) | DBP maximum changes from baseline to week 40: Increase ≥10% [10]: 11 (11.5) n (%) | DBP maximum changes from baseline to week 40: Increase ≥20% [10]: 0 n (%) | DBP maximum changes from baseline to week 40: Increase ≥30% [10]: 0 n (%) | SBP Change - Wk 40, Median [10]: −2.8 mmHg | SBP maximum changes from baseline to week 40: Decrease ≥10% [10]: 27 (28.1) n (%) | SBP maximum changes from baseline to week 40: Decrease ≥20% [10]: 3 (3.1) n (%) | SBP maximum changes from baseline to week 40: Decrease ≥30% [10]: 1 (1.0) n (%) | SBP maximum changes from baseline to week 40: Increase ≥10% [10]: 16 (16.7) n (%) | SBP maximum changes from baseline to week 40: Increase ≥20% [10]: 2 (2.1) n (%) | SBP maximum changes from baseline to week 40: Increase ≥30% [10]: 0 n (%) | DBP Change - Wk 40, Mean (SD) [11]: −1.0 (9.0) mmHg | SBP Change - Wk 40, Mean (SD) [11]: −2.6 (11.4) mmHg | DBP Change - Wk 40, Mean (SD) [12]: −1.0±9.0 mmHg | SBP Change - Wk 40, Mean (SD) [12]: −2.6±11.4 mmHg
